Blank lines part the entries; values can stand above or below the molecule they belong to.
Experiments:
[1] = PK test on cynomolgus monkeys; assay type: in vivo; details: male, cynomolgus monkey, plasma; for bioavailability: read-out: F (absolute bioavailability)
Experimental: (4) PK Test on Cynomolgus Monkeys:
The PK test method of the compound in vivo of cynomolgus monkeys (purchased from Guangdong Chunsheng Biotechnology Development Co., Ltd., weight 3-6 kg, male, ages of 4-6 years, 3 per oral group, 3 per intravenous injection group):
The cynomolgus monkeys were administered intragastrically with the test compound at doses of 2.5 mg/kg or 5 mg/kg or administered intravenously with the test compound at doses of 0.5 mg/kg or 1 mg/kg.
Blood samples were taken at 0.083, 0.25, 0.5, 1, 2, 4, 6, 8 and 24 hours from vein after the administration, and collected in anticoagulation tube with EDTA-K2. After liquid-liquid extraction, the plasma sample was quantitatively analyzed on a triple quadrupole tandem mass spectrometer using multiple reactive ion monitoring (MRM). Pharmacokinetic parameters were calculated using a noncompartmental method by WinNonLin 6.3 software.

HBV [2] = assay: Inhibition of HBV DNA replication in HepAD38 cells (qPCR method); assay type: cell-based; details: Hepatitis B virus, secreted virus DNA by qPCR
Excerpt: Test 1: Evaluation of HepAD38 Cells on the Compound's Inhibitory Activity of HBV DNA Replication (qPCR Method)
HBV Cell Strain and Culture Conditions
HepAD38: Ladner et al. (Ladner, Otto et al. 1997) ligated the tetracycline-sensitive cytomegalovirus CMV promoter to the PBR322 plasmid and ligated it with the ayw subtype HBV DNA into the ptetHBV plasmid, and HepG2 cells were transfected to obtain the HepAD38 cell strain. Due to the destruction of the pre-C region gene, the yield of HBV DNA was about 11 times higher than that of HepG2.2.15 cells. Tetracycline could be used to regulate HBV replication, and the time required for culture was only half of that of HepG2.2.15 cells. It was suitable for studying the HBV replication process and replication intermediates and screening of anti-HBV drugs. HepAD38 was cultured in DMEM/F-12K medium containing 10% FBS and 1% double antibody (it also contained Tetracycline at a final concentration of 300 ng/ml and G418 at a final concentration of 400 μg/ml).
The virus particle DNA secreted by HepAD38 cells could be quantified by qPCR method, and thus the influence of the compound on virus replication could be detected.
(§1) Test of Anti HBV Activity In Vitro
After resuscitating the HepAD38 with a small number of passages, after the cells were in good condition, Tetracycline (final concentration of 300 ng/ml) and G418 (final concentration of 400 μg/ml) were added into the medium. […] After the cells were full, they were digested, counted, and diluted with DMEM/F-12K medium containing 10% FBS (containing Tetracycline at a final concentration of 300 ng/ml and G418 at a final concentration of 400 μg/ml, 1% double antibody) to a cell suspension of concentration of 2×10^5/mL. The cell suspension was seeded in a 96-well plate (the whole plate was covered) at 100 μL per well, and incubated at 37° C. in a constant temperature incubator with 5% CO2 for 24 h.
Compound preparation and cell treatment in antiviral experiments: the compound was dissolved with DMSO to 20 mM. Furthermore, the compound was diluted with DMSO to 800 μM, and then 8 dilutions at 4 fold were performed, the highest concentration was 800 μM. 1 μL of serially diluted compound was added to each well of the above-mentioned cell plate. The highest final concentration of the experiment was 4 μM (200 fold dilution). TDF (tenofovir disoproxil fumarate, Selleck, Cat S1400) was used as a positive control compound with a highest concentration of 4 μM. 1 μL of DMSO was added to the negative control wells to a final concentration of 0.5%.
The one-step hepatitis B virus nucleic acid quantitative determination kit for 48 people (PCR-fluorescent probe method) of Shengxiang Biotechnology was used for QPCR. 2.5 μL of supernatant was absorbed for Q-PCR, and the kit reagents were vortexed and mixed well after the reagents were melted before use. After centrifugation, the enzyme mixture was placed on ice for later use, and it was ensured that the subsequent steps were completed on the ice. 2.5 μL of sample release agent and 2.5 μL of test sample supernatant (experimental group, control group, standard curve group) were added to each well of the Q-PCR plate. After QPCR reaction, the copy number of virus DNA in each well was obtained. Graphpad Prism 5 software was used to process the concentration-virus copy number, and the EC50 of the compound against virus replication was calculated through a four-parameter nonlinear regression model.

HBV [3] = assay: Inhibition of HBV DNA replication in HepG2.2.15 cells (qPCR); assay type: cell-based; details: Hepatitis B virus, secreted virus DNA by qPCR
Experimental: Test 2: Evaluation of HepG2.2.15 Cells on the Compound's Inhibitory Activity of HBV DNA Replication
HBV Cell Line and Culture Conditions
The chromosomes of HepG2.2.15 cells (SELLS, PNAS, 1987 and SELLS, JV, 1988) integrated a complete HBV genome and stably expressed viral RNA and viral proteins. HepG2.2.15 cells could secrete mature hepatitis B virus particles, HBsAg and HBeAg into the culture medium. HepG2.2.15 cells were cultured in a DMEM medium containing 10% fetal bovine serum, 100 U/mL penicillin, 100 U/mL streptomycin, 1% non-essential amino acids, 1 mM sodium pyruvate and 300 µg/mL G418.
The virus particle DNA secreted by HepG2.2.15 cells could be quantified by qPCR method, and the influence of the compound on virus replication could be detected.
as §1
8,000 HepG 2.2.15 cells per well were seeded into a 96-well cell culture plate, the plate was cultured at 37° C. and 5% CO2 for 3 days until the cells grew to full wells. Old liquid medium was discard and replaced with 200 μL of new medium (5% FBS) on day 0. […]
Primers: HBV-For-202, […]; HBV-Rev-315, […]. […] Graphpad Prism 5 software was used to process the concentration-virus copy number, and the EC50 of the compound against virus replication was calculated through a four-parameter nonlinear regression model.

- AUC(0-t) ([1]; iv, 0.5 mg/kg): 720 ng·h/mL
- Tmax ([1]; iv, 0.5 mg/kg): 4.98 min
- AUC(0-t) ([1]; po, 2.5 mg/kg): 647 ng·h/mL
- Tmax ([1]; po, 2.5 mg/kg): 90 min
- bioavailability ([1]; po, 2.5 mg/kg): 23.6%
Compound: COC(=O)C1=C(CN2CCN3C(=O)N(c4ccc(C(=O)O)cc4)C[C@@H]3C2)NC(c2nccs2)=N[C@H]1c1ccc(F)cc1Cl [Control compound, 4-((S)-7-(((R)-6-(2-chloro-4-fluorophenyl)-5-(methoxycarbonyl)-2-(thiazol-2-yl)-3,6-dihydropyrimidin-4-yl)methyl)-3-oxohexahydroimidazo[1,5-a]pyrazine-2(3H)-yl)benzoic acid, reference compound]

Compound: COC(=O)C1=C(CN2CCN3C(=O)N(c4ccc(C(=O)O)cc4F)C[C@@H]3C2)NC(c2nccs2)=N[C@H]1c1ccc(F)cc1Cl [Example 1]
- EC50 (HBV [2]): 20 nM

Compound: COC(=O)C1=C(CN2CCN3C(=O)N(c4ccc(C(=O)O)c(F)c4)C[C@@H]3C2)NC(c2nccs2)=N[C@H]1c1ccc(F)cc1Cl [Example 2]
- EC50 (HBV [2]): 10 nM
- AUC(0-t) ([1]; iv, 0.5 mg/kg): 1020 ng·h/mL
- Tmax ([1]; iv, 0.5 mg/kg): 4.98 min
- AUC(0-t) ([1]; po, 2.5 mg/kg): 3380 ng·h/mL
- Tmax ([1]; po, 2.5 mg/kg): 30 min
- bioavailability ([1]; po, 2.5 mg/kg): 64.8%
- EC50 (HBV [3]): 4 nM

Compound: CCOC(=O)C1=C(CN2CCN3C(=O)N(c4ccc(C(=O)O)cc4F)C[C@@H]3C2)NC(c2nccs2)=N[C@H]1c1ccc(F)cc1Br [Example 3]
- EC50 (HBV [2]): 31 nM

Compound: CCOC(=O)C1=C(CN2CCN3C(=O)N(c4ccc(C(=O)O)c(F)c4)C[C@@H]3C2)NC(c2nccs2)=N[C@H]1c1ccc(F)cc1Br [Example 4]
- EC50 (HBV [2]): 16 nM

Compound: CCOC(=O)C1=C(CN2CCN3C(=O)N(c4ccc(C(=O)O)c(F)c4)C[C@@H]3C2)NC(c2nccs2)=N[C@H]1c1ccc(F)cc1Cl [Example 6]
- EC50 (HBV [2]): 15 nM

Compound: CCOC(=O)C1=C(CN2CCN3C(=O)N(c4ccc(C(=O)O)cc4F)C[C@@H]3C2)NC(c2nccs2)=N[C@H]1c1ccc(Cl)cc1Cl [Example 7]
- EC50 (HBV [2]): 16 nM

Compound: CCOC(=O)C1=C(CN2CCN3C(=O)N(c4ccc(C(=O)O)c(F)c4)C[C@@H]3C2)NC(c2nccs2)=N[C@H]1c1ccc(Cl)cc1Cl [Example 8]
- EC50 (HBV [2]): 13 nM
